Source: patent US20110098296A1, “Thiazole And Oxazole Kinase Inhibitors” (priority 2007, published 2011)

Legend:
BT474 tumor cells = experiment: Method A: Methylene Blue Growth Inhibition Assay, BT474; type: cell-based; conditions: Homo sapiens, BT-474, 72 h, 3 days
Protocol: (§1) Human breast (BT474) and head and neck (HN5) tumor cells were cultured in low glucose DMEM (Life Technologies 12320-032) containing 10% fetal bovine serum (FBS). Human colon tumor cells (Colo205) were cultured in DMEM (Invitrogen, 10564) containing 10% FBS. The SV40 transformed human mammary epithelial cell line HB4a was transfected with either human H-ras cDNA (HB4a r4.2) or the human c-ErbB2 cDNA (HB4a c5.2). The HB4a clones were cultured in RPMI containing 10% FBS, insulin (5 g/mL), hydrocortisone (5 g/mL), supplemented with the selection agent hygromycin B (50 g/mL). All lines were grown in a humidified incubator at 37° C. in 95% air, 5% CO2. Cells were harvested using trypsin/EDTA, counted using a haemocytometer, and plated in 100 μL of the appropriate media, at the following densities, in a 96-well tissue culture plate (Falcon 3075): BT474 10,000 cells/well, HN5 3,000 cells/well. The next day, compounds were diluted in DMEM containing […] gentamicin, at twice the final required concentration, from 10 mM stock solutions in DMSO. 100 μl/well of these dilutions were added to the 100 μL of media currently on the cell plates. Medium containing 0.6% DMSO was added to control wells. Compounds diluted in DMEM were added to all cell lines. The final concentration of DMSO in all wells was 0.3%. Cells were returned to the incubator (37° C., […]) for 3 days. Medium was then removed by aspiration. Cell biomass was estimated by staining cells with 90 μL/well methylene blue (Sigma M9140, 0.5% in 1:1 EtOH:H2O), and incubation at room temperature for at least 30 minutes. Stain was removed, and the plates rinsed by immersion in deionized H2O and air-dried. To release stain from the cells 100 μL of solubilization solution were added (1% N-lauroyl sarcosine, sodium salt, Sigma L5125, in PBS), and plates were shaken gently for about 30 minutes. Optical density at 620 nm was measured on a microplate reader. Percent inhibition of cell growth was calculated relative to vehicle-treated control wells. Concentration of compound that inhibits 50% of control cell growth (IC50) was interpolated using nonlinear regression (Levenberg-Marquardt) and the equation,
(§2) y=Vmax*(1−(x/(K+x)))+Y2, where “K” was equal to the IC50.

ErbB2 = target: T1, ErbB2 (Homo sapiens, UniProt P04626); experiment: ErbB-2 substrate phosphorylation assay (HTRF); type: biochemical
T1 construct: made in house; host or cells: baculovirus expression system
Outline: (§3)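 Baculovirus-expressed kinase (0.8 nM EGFR or 10 nM ErbB2 in enzyme mix) with Peptide C 0.8 μM and ATP 20 μM (substrate-mix levels), MOPS pH 7.5, MnCl2; 90 min, 20 °C, HTRF anti-phosphotyrosine. Method A adds 1 h enzyme–compound preincubation; B none. pIC50, final compound 0.00027–47.6 μM.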

EGFR = target: T2, EGFR (Homo sapiens, UniProt P00533); experiment: EGFR substrate phosphorylation assay (HTRF); type: biochemical
T2 construct: made in house; host or cells: baculovirus expression system
Outline: as §3

Colo205 tumor cells = experiment: Method A: Methylene Blue Growth Inhibition Assay, Colo205; type: cell-based; conditions: Homo sapiens, COLO 205, 72 h, 3 days
Protocol: as §1, §2

HN5 tumor cells = experiment: Method A: Methylene Blue Growth Inhibition Assay, HN5; type: cell-based; conditions: Homo sapiens, 72 h, 3 days
Protocol: as §1, §2

[1] = Method (A): Enzyme Mix incubated with compound at 20° C. for 1 hr, reaction started by adding Substrate Mix
[2] = Method (B): Substrate Mix added to compound first, reaction started by adding Enzyme Mix

T1 sequence (P04626 23-1255): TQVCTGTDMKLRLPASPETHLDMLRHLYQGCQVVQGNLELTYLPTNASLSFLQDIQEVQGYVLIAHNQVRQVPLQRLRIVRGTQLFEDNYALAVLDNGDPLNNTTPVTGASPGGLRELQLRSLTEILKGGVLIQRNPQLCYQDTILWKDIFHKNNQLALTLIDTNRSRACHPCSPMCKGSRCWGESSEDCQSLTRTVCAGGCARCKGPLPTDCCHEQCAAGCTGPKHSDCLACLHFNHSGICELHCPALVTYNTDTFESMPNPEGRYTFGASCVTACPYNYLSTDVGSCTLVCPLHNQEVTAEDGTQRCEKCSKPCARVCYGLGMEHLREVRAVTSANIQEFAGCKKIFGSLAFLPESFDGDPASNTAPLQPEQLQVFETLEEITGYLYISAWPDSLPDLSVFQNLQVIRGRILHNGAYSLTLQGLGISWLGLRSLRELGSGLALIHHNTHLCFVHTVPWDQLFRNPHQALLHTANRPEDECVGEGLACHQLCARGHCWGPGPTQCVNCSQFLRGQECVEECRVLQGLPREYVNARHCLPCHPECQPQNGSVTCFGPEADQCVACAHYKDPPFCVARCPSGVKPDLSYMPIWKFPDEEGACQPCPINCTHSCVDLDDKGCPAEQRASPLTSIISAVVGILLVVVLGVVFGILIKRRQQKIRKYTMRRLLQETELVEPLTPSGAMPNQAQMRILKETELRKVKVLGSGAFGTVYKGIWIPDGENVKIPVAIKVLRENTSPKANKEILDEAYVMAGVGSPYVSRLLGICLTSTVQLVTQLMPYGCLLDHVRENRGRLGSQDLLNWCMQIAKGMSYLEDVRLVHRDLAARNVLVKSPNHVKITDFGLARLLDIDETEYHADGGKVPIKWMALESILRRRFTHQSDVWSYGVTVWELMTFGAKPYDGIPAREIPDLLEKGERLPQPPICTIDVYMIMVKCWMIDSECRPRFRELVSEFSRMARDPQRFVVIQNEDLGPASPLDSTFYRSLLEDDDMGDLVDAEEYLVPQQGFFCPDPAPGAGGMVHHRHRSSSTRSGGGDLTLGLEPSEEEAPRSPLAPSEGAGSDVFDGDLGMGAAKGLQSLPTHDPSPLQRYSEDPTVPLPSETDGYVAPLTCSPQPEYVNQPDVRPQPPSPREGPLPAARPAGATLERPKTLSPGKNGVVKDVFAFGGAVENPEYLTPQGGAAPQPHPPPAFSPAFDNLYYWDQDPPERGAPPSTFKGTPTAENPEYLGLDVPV
T2 sequence (P00533 25-1210): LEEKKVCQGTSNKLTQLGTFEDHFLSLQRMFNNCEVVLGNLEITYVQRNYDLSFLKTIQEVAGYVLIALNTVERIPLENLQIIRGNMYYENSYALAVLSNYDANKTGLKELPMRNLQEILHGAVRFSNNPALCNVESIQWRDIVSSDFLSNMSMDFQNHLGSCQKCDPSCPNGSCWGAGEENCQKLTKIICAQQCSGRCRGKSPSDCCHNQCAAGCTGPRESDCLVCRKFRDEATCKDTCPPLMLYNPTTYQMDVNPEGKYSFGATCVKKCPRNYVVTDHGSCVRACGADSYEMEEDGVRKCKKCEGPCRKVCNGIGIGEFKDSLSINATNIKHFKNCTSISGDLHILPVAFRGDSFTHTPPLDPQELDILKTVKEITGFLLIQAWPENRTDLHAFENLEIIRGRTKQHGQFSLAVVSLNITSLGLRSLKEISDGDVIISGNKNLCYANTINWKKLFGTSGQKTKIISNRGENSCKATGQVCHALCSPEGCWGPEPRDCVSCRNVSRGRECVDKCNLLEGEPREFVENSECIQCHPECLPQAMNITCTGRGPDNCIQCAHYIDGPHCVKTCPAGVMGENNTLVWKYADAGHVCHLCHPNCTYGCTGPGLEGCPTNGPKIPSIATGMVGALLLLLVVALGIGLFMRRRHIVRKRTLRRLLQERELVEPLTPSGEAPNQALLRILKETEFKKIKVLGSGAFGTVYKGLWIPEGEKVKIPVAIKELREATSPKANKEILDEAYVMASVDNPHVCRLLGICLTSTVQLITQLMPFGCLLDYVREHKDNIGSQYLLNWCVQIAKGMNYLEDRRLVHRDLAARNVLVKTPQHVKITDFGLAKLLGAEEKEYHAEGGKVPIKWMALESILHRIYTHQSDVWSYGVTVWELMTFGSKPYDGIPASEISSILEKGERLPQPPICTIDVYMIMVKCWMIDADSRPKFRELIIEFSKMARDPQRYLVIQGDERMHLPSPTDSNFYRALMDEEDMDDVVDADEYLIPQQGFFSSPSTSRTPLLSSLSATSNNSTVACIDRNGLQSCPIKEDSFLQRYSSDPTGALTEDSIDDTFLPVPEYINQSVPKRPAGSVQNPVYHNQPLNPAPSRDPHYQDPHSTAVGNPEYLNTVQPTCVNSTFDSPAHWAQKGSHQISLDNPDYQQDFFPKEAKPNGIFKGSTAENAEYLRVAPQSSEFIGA

| Compound | IC50 (BT474 tumor cells) | IC50 (ErbB2; [1]) | IC50 (EGFR; [1]) | IC50 (Colo205 tumor cells) | IC50 (HN5 tumor cells) | IC50 (ErbB2; [2]) | IC50 (EGFR; [2]) |
| --- | --- | --- | --- | --- | --- | --- | --- |
| Nc1nc(-c2cccc(NC(=O)c3c(F)cccc3F)c2)c(-c2ccnc(Nc3cccc(-c4cnco4)c3)n2)s1 [Example 14, N-{3-[2-Amino-5-(2-{[3-(1,3-oxazol-5-yl)phenyl]amino}-4-pyrimidinyl)-1,3-thiazol-4-yl]phenyl}-2,6-difluorobenzamide] | < 100 nM | < 100 nM | < 100 nM | < 100 nM | < 100 nM |  |  |
| Nc1nc(-c2cccc(NC(=O)c3c(F)cccc3F)c2)c(-c2ccnc(Nc3ccc4c(c3)CNCC4)n2)s1 [Example 21, N-(3-{2-Amino-5-[2-(1,2,3,4-tetrahydro-7-isoquinolinylamino)-4-pyrimidinyl]-1,3-thiazol-4-yl}phenyl)-2,6-difluorobenzamide] | < 100 nM | < 100 nM | < 100 nM | 100 to 1000 nM | < 100 nM |  |  |
| CNc1nc(-c2cccc(NC(=O)c3cc(F)ccc3F)c2)c(-c2ccnc(Nc3ccc(OC)c(F)c3)n2)s1 [Example 51, 2,5-Difluoro-N-{3-[5-(2-{[3-fluoro-4-(methyloxy)phenyl]amino}-4-pyrimidinyl)-2-(methylamino)-1,3-thiazol-4-yl]phenyl}benzamide] | 100 to 1000 nM | < 100 nM | < 100 nM | > 1000 nM | > 1000 nM |  |  |
| COCCNc1nc(-c2cccc(NC(=O)c3cc(F)ccc3F)c2)c(-c2ccnc(Nc3ccc(OC)c(F)c3)n2)s1 [Example 52, 2,5-Difluoro-N-[3-(5-(2-{[3-fluoro-4-(methyloxy)phenyl]amino}-4-pyrimidinyl)-2-{[2-(methyloxy)ethyl]amino}-1,3-thiazol-4-yl)phenyl]benzamide] | < 100 nM | < 100 nM | < 100 nM | 100 to 1000 nM | 100 to 1000 nM |  |  |
| Nc1nc(-c2cccc(NC(=O)c3cc(F)ccc3F)c2)c(-c2ccnc(Nc3ccc4c(c3)CNCC4)n2)s1 [Example 57] | < 100 nM | < 100 nM | < 100 nM | 100 to 1000 nM | < 100 nM |  |  |
| CN(C)CCCNc1ccc(Nc2nccc(-c3sc(N)nc3-c3cccc(NC(=O)C4CCCCC4)c3)n2)cc1F [Example 60] | 100 to 1000 nM | < 100 nM | < 100 nM | 100 to 1000 nM | < 100 nM |  |  |
| CN(C)CCCNc1ccc(Nc2nccc(-c3sc(N)nc3-c3cccc(NC(=O)c4cccn4C)c3)n2)cc1F [Example 65, N-[3-(2-Amino-5-{2-[(4-{[3-(dimethylamino)propyl]amino}-3-fluorophenyl)amino]-4-pyrimidinyl}-1,3-thiazol-4-yl)phenyl]-1-methyl-1H-pyrrole-2-carboxamide] | < 100 nM | < 100 nM | < 100 nM | 100 to 1000 nM | < 100 nM |  |  |
| CN(C)CCOc1ccc(Nc2nccc(-c3sc(N)nc3-c3cccc(OCc4ccccc4)c3)n2)cc1Cl [Example 70, 4-(2-Amino-4-{3-[(phenylmethyl)oxy]phenyl}-1,3-thiazol-5-yl)-N-(3-chloro-4-{[2-(dimethylamino)ethyl]oxy}phenyl)-2-pyrimidinamine] | 100 to 1000 nM | < 100 nM | < 100 nM | 100 to 1000 nM | 100 to 1000 nM |  |  |
| COc1ccc(Nc2nccc(-c3scnc3-c3cccc(NC(=O)c4c(F)cccc4F)c3)n2)cc1F [Example 87, 2,6-Difluoro-N-{3-[5-(2-{[3-fluoro-4-(methyloxy)phenyl]amino}-4-pyrimidinyl)-1,3-thiazol-4-yl]phenyl}benzamide] | 100 to 1000 nM |  |  | > 1000 nM | < 100 nM | 100 to 1000 nM | 100 to 1000 nM |
| O=C(Nc1cccc(-c2ncsc2-c2ccnc(Nc3cccc(F)c3)n2)c1)c1c(F)cccc1F [Example 88] | 100 to 1000 nM |  | 100 to 1000 nM |  | < 100 nM | 100 to 1000 nM |  |

Continued, values first:

| IC50 (BT474 tumor cells) | IC50 (ErbB2; [1]) | IC50 (EGFR; [1]) | IC50 (Colo205 tumor cells) | IC50 (HN5 tumor cells) | IC50 (ErbB2; [2]) | IC50 (EGFR; [2]) | Compound |
| --- | --- | --- | --- | --- | --- | --- | --- |
| < 100 nM | < 100 nM | < 100 nM | 100 to 1000 nM | < 100 nM |  |  | O=C(Nc1cccc(-c2nc(NCCN3CCOCC3)sc2-c2ccnc(Nc3ccc4c(c3)CNCC4)n2)c1)c1c(F)cccc1F [Example 1, 2,6-Difluoro-N-(3-{2-{[2-(4-morpholinyl)ethyl]amino}-5-[2-(1,2,3,4-tetrahydro-7-isoquinolinylamino)-4-pyrimidinyl]-1,3-thiazol-4-yl}phenyl)benzamide] |
| < 100 nM | < 100 nM | < 100 nM | 100 to 1000 nM | < 100 nM |  |  | COCCOc1ccc(Nc2nccc(-c3sc(N)nc3-c3cccc(NC(=O)c4c(F)cccc4F)c3)n2)cc1F [Example 3] |
| 100 to 1000 nM | < 100 nM | < 100 nM | > 1000 nM | < 100 nM |  |  | COc1ccc(Nc2nccc(-c3sc(N)nc3-c3cccc(NC(=O)c4cc(F)ccc4F)c3)n2)cc1F [Example 50, N-{3-[2-Amino-5-(2-{[3-fluoro-4-(methyloxy)phenyl]amino}-4-pyrimidinyl)-1,3-thiazol-4-yl]phenyl}-2,5-difluorobenzamide] |
| < 100 nM | < 100 nM | < 100 nM | 100 to 1000 nM | < 100 nM |  |  | COc1ccc(Nc2nccc(-c3sc(NCCN4CCOCC4)nc3-c3cccc(NC(=O)c4cc(F)ccc4F)c3)n2)cc1F [Example 53, 2,5-Difluoro-N-[3-(5-(2-{[3-fluoro-4-(methyloxy)phenyl]amino}-4-pyrimidinyl)-2-{[2-(4-morpholinyl)ethyl]amino}-1,3-thiazol-4-yl)phenyl]benzamide] |
| < 100 nM | < 100 nM | < 100 nM | > 1000 nM | < 100 nM |  |  | Nc1nc(-c2cccc(NC(=O)c3cc(F)ccc3F)c2)c(-c2ccnc(Nc3cccc(-c4cnco4)c3)n2)s1 [Example 54] |
| < 100 nM | < 100 nM | < 100 nM | 100 to 1000 nM | < 100 nM |  |  | COCCOc1ccc(Nc2nccc(-c3sc(N)nc3-c3cccc(NC(=O)c4cc(F)ccc4F)c3)n2)cc1F [Example 58, N-[3-(2-Amino-5-{2-[(3-fluoro-4-{[2-(methyloxy)ethy]oxy}phenyl)amino]-4-pyrimidinyl}-1,3-thiazol-4-yl)phenyl]-2,5-difluorobenzamide] |
| 100 to 1000 nM | < 100 nM | < 100 nM | 100 to 1000 nM | < 100 nM |  |  | CN(C)CCOc1ccc(Nc2nccc(-c3sc(N)nc3-c3cccc(NC(=O)C4CCCCC4)c3)n2)cc1Cl [Example 61] |
| 100 to 1000 nM | < 100 nM | < 100 nM | 100 to 1000 nM | < 100 nM |  |  | Nc1nc(-c2cccc(NC(=O)C3CCCCC3)c2)c(-c2ccnc(Nc3cccc(-c4cnco4)c3)n2)s1 [Example 62, N-{3-[2-Amino-5-(2-{[3-(1,3-oxazol-5-yl)phenyl]amino}-4-pyrimidinyl)-1,3-thiazol-4-yl]phenyl}cyclohexanecarboxamide] |
| 100 to 1000 nM | < 100 nM | < 100 nM | > 1000 nM | 100 to 1000 nM |  |  | Nc1nc(-c2cccc(OCc3ccccc3)c2)c(-c2ccnc(Nc3ccc4c(c3)CNCC4)n2)s1 [Example 71, N-[4-(2-Amino-4-{3-[(phenylmethyl)oxy]phenyl}-1,3-thiazol-5-yl)-2-pyrimidinyl]-1,2,3,4-tetrahydro-7-isoquinolinamine] |
